# Like-named read-outs stand apart in the source and are kept apart here.
# Assays:
# Assay type in all cases: cell-based, human
# SK-MEL-5 cells = assay: Cell survival assay (SRB); settings: for IC50: Homo sapiens, SK-MEL-5, read-out: Cytoselectivities (nM) SK-MEL-5; for Selectivity Index SK-MEL-5: Table 13, S enantiomer, IC50(NFF)/IC50(cancer cell line)
# Method: (§1) Cell Lines and Culture Medium. All cell lines used in this study have been described previously (Parsons et al., 1986; Todaro et al., 1980; Glenn et al., 2004). All cell lines were cultured in 10% heat-inactivated foetal calf serum (CSL, Australia) in RPMI 1640 medium supplemented with 100 U/mL penicillin, 100 μg/mL streptomycin, and 3 mM HEPES at 5% CO2, 99% humidity at 37° C. Primary human fibroblasts were obtained from neonatal foreskins and cultured in the above medium. Routine mycoplasma tests were performed using Hoechst stain^i and were always negative.
# (§2) Cell Survival Assay. Cells were plated into 96-well microtitre plates at 5×10^3 cells/well, and allowed to adhere overnight. Test compounds were added to culture medium at the indicated concentrations, and plates incubated in the above conditions for 24 hours. Following this incubation period, compounds and media were removed, and replaced with fresh culture medium. Cells were then grown for a further 72 hours before assay using sulforhodamine B (SRB; Sigma, St. Louis, Mo.) as previously described. Briefly, the culture medium was removed from the 96-well microtitre plates and the plates washed twice with phosphate buffered saline (PBS), before the cells were fixed with methylated spirits for 15 minutes. The plates were then rinsed with tap water and the fixed cells stained with 50 μL/well of SRB solution (0.4% sulforhodamine B (w/v) in 1% (v/v) acetic acid) over a period of 1 hour. The SRB solution was then removed from the wells and the plates rapidly washed two times with 1% (v/v) acetic acid. Protein bound dye was then solubilised with the addition of 100 μL of 10 mM unbuffered Tris, and incubated for 15 min at 25° C. Plates were then read at 564 nm on a VERSA max tunable microplate reader (Molecular Devices, Sunnyvale, Calif.).
# PC-3 cells = assay: Cell survival assay (SRB); settings: for IC50: Homo sapiens, PC-3, read-out: Cytoselectivities (nM) PC-3; for Selectivity Index PC-3: Table 13, S enantiomer, IC50(NFF)/IC50(cancer cell line)
# Method: as §1, §2
# HT29 cells = assay: Cell survival assay (SRB); settings: for IC50: Homo sapiens, HT-29, HT29 (colon), read-out: Cytoselectivities (nM) HT29; for Selectivity Index HT29: Table 13, S enantiomer, IC50(NFF)/IC50(cancer cell line)
# Method: as §1, §2
# HOP62 cells = assay: Cell survival assay (SRB); settings: for IC50: Homo sapiens, HOP-62, HOP62 (lung), read-out: Cytoselectivities (nM) HOP62; for Selectivity Index HOP62: Table 13, S enantiomer, IC50(NFF)/IC50(cancer cell line)
# Method: as §1, §2
# H520 cells = assay: Cell survival assay (SRB); settings: for IC50: Homo sapiens, NCI-H520, read-out: Cytoselectivities (nM) H520; for Selectivity Index H520: Table 13, S enantiomer, IC50(NFF)/IC50(cancer cell line)
# Method: as §1, §2
# T-47D cells = assay: Cell survival assay (SRB); settings: for IC50: Homo sapiens, T47D, read-out: Cytoselectivities (nM) T-47D; for Selectivity Index T-47D: Table 13, S enantiomer, IC50(NFF)/IC50(cancer cell line)
# Method: as §1, §2
# A549 cells = assay: Cell survival assay (SRB); settings: for IC50: Homo sapiens, A549 (lung), read-out: Cytoselectivities (nM) A549; for Selectivity Index A549: Table 13, S enantiomer, IC50(NFF)/IC50(cancer cell line)
# Method: as §1, §2
# Col208 cells = assay: Cell survival assay (SRB); settings: for IC50: Homo sapiens, Col208 (colon), read-out: Cytoselectivities (nM) Col208; for Selectivity Index Col208: Table 13, S enantiomer, IC50(NFF)/IC50(cancer cell line)
# Method: as §1, §2
# MM96L melanoma cells = assay: Cell survival assay (clonogenic survival, SRB); settings: for IC50: Homo sapiens, MM96L; for SI (Selectivity Index = IC50 (NFF)/IC50 (MM96L)): NFF vs MM96L; for Selectivity Index MM96L: Table 13, S enantiomer, IC50(NFF)/IC50(cancer cell line)
# Summary of the method: (§3)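 Cells (5×10^3/well, RPMI 1640 with 10% FCS) treated 24 h with compound at 0.01-10 μg/mL, then washed and grown 72 h drug-free at 37 °C, 5% CO2. Survival read by SRB staining after methylated-spirit fixation, absorbance 564 nm.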
# [1] = tested on: DU145 prostate cancer cells; assay: Cell survival assay (SRB); settings: for IC50: Homo sapiens, DU-145, DU145 (prostate), read-out: Cytoselectivities (nM) DU145; for Selectivity Index DU145: Table 13, S enantiomer, IC50(NFF)/IC50(cancer cell line)
# Method: as §1, §2
# (§4) For comparison their results are also shown for MM96L and NFF cell lines.
# JAM ovarian cancer cells = assay: Cell survival assay (SRB); settings: for IC50: Homo sapiens, read-out: Cytoselectivities (nM) JAM; for Selectivity Index JAM: Table 13, S enantiomer, IC50(NFF)/IC50(cancer cell line)
# Method: as §1, §2, §4
# [2] = tested on: MCF-7 breast cancer cells; assay: Cell survival assay (SRB); settings: for IC50: Homo sapiens, MCF7, MCF-7 (breast), read-out: Cytoselectivities (nM) MCF-7; for Selectivity Index MCF-7: Table 13, S enantiomer, IC50(NFF)/IC50(cancer cell line)
# Method: as §1, §2, §4
# [3] = tested on: CI-80-13S ovarian cancer cells; assay: Cell survival assay (SRB); settings: for IC50: Homo sapiens, read-out: Cytoselectivities (nM) CI80-13S; for Selectivity Index CI80-13S: Table 13, S enantiomer, IC50(NFF)/IC50(cancer cell line)
# Method: as §1, §2, §4
# SkMel28 melanoma cells = assay: Cell survival assay (SRB); settings: for IC50: Homo sapiens, SK-MEL-28 (melanoma), read-out: Cytoselectivities (nM) SK-MEL-28; for Selectivity Index SK-MEL-28: Table 13, S enantiomer, IC50(NFF)/IC50(cancer cell line)
# Method: as §1, §2, §4
# [4] = tested on: NFF, neonatal foreskin fibroblasts; assay: Cell survival assay (clonogenic survival, SRB), normal cells; settings: Homo sapiens, Fibroblast, NFF normal fibroblasts; 24 h with compound, further 72 h growth, SRB; read-out: IC50 (uM) NFF
# Summary of the method: as §3
# [5] = MM96L melanoma, 24 h with compound, further 72 h growth, SRB, read-out: IC50 (uM) MM96L
# [6] = Table 12, read-out: Cytoselectivities (nM) MM96L
# [7] = most preferred compounds, exemplary examples, read-out: potency of IC50 against the MM96 melanoma cells
SMILES,IC50 (SK-MEL-5 cells) [nM],Selectivity Index SK-MEL-5 (SK-MEL-5 cells),IC50 (PC-3 cells) [nM],Selectivity Index PC-3 (PC-3 cells),IC50 (HT29 cells) [nM],Selectivity Index HT29 (HT29 cells),IC50 (HOP62 cells) [nM],Selectivity Index HOP62 (HOP62 cells),IC50 (H520 cells) [nM],Selectivity Index H520 (H520 cells),IC50 (T-47D cells) [nM],Selectivity Index T-47D (T-47D cells),IC50 (A549 cells) [nM],Selectivity Index A549 (A549 cells),IC50 (Col208 cells) [nM],Selectivity Index Col208 (Col208 cells),IC50 (MM96L melanoma cells; [5]) [µM],IC50 (MM96L melanoma cells; [6]) [µM],SI (Selectivity Index = IC50 (NFF)/IC50 (MM96L)) (MM96L melanoma cells),Selectivity Index MM96L (MM96L melanoma cells),other results
O=C(CCCCC[C@H](NC(=O)c1ccc(Br)cc1)C(=O)Nc1ccc(-c2ccccc2)cc1)NO [Example 161],102,1.8,531,0.3,307,0.6,261,0.7,117,1.6,197,0.9,335,0.6,272,0.6,0.074,0.121,2.5,1.5,IC50 [1]: 149 nM; Selectivity Index DU145 [1]: 1.2; IC50 (JAM ovarian cancer cells): 182 nM; Selectivity Index JAM (JAM ovarian cancer cells): 1.0; IC50 [2]: 149 nM; Selectivity Index MCF-7 [2]: 1.2; IC50 [3]: 158 nM; Selectivity Index CI80-13S [3]: 1.2; IC50 (SkMel28 melanoma cells): 168 nM; Selectivity Index SK-MEL-28 (SkMel28 melanoma cells): 1.1; IC50 [4]: 0.185 µM
O=C(CCCCC[C@H](NC(=O)c1cc2ccccc2[nH]1)C(=O)Nc1cccc2cccnc12)NO [Example 132],18,18,148,2,79,4,63,5,26,13,19,18,69,5,102,3,0.021,0.018,16,19,IC50 (MM96L melanoma cells; [7]): ≤ 0.5 µM; IC50 [1]: 22 nM; Selectivity Index DU145 [1]: 15; IC50 (JAM ovarian cancer cells): 48 nM; Selectivity Index JAM (JAM ovarian cancer cells): 7; IC50 [2]: 19 nM; Selectivity Index MCF-7 [2]: 18; IC50 [3]: 20 nM; Selectivity Index CI80-13S [3]: 17; IC50 (SkMel28 melanoma cells): 33 nM; Selectivity Index SK-MEL-28 (SkMel28 melanoma cells): 10; IC50 [4]: 0.337 µM
CN(C)c1ccc(C(=O)N[C@@H](CCCCCC(=O)NO)C(=O)Nc2cccc3cccnc23)cc1 [Example 126],32,18,220,3,178,3,137,4,63,9,45,13,148,4,223,1.5,0.02 ± 0.01,0.051,28,11,IC50 (MM96L melanoma cells; [7]): ≤ 0.5 µM; IC50 [1]: 61 nM; Selectivity Index DU145 [1]: 9; IC50 (JAM ovarian cancer cells): 85 nM; Selectivity Index JAM (JAM ovarian cancer cells): 7; IC50 [2]: 35 nM; Selectivity Index MCF-7 [2]: 16; IC50 [3]: 65 nM; Selectivity Index CI80-13S [3]: 9; IC50 (SkMel28 melanoma cells): 73 nM; Selectivity Index SK-MEL-28 (SkMel28 melanoma cells): 8; IC50 [4]: 0.57 ± 0.07 µM

# From patent US20080004290A1, “Anti-Cancer Agents” (THE UNIVERSITY OF QUEENSLAND, priority 2003, published 2008)
